Experimental findings from the NIST ThermoML archive (doi:10.1021/je600557n) are described below.

Numbers after ± are expanded uncertainties.

The conditions of series [1]: 101.33 kPa, Liquid.
The nature of series [2]: molar heat capacity at constant pressure. The note with it: 101.33 kPa, Liquid, Small sample (50 mg) DSC.
Series [3] can be described thus: refractive index (Na D-line) (dimensionless). The note with it: 101.33 kPa, Liquid, Standard Abbe refractometry.

Consider `CC1CCCO1` (stereo unspecified) [2-methyltetrahydrofuran], for which the results for the mass density in series [1] (293.15 K), in series [1] (303.15 K) and in series [1] (313.15 K) were 853.15 ± 0.68 kg/m3, 842.8 ± 0.7 kg/m3 and 832.44 ± 0.72 kg/m3, respectively. Besides, the viscosity in series [1] (293.15 K) is 0.492 ± 0.008 mPa·s; in series [1] (303.15 K) it was 0.443 ± 0.008 mPa·s; in series [1] (313.15 K), 0.416 ± 0.007 mPa·s. For the same compound, the “molar heat capacity at constant pressure” value in series [2] (288.15 K) is on record as 153.5 ± 2.4 J/K/mol; in series [2] (293.15 K), 155.3 ± 2.4 J/K/mol; in series [2] (298.15 K), 156.9 ± 2.4 J/K/mol; in series [2] (303.15 K), 158.7 ± 2.5 J/K/mol; in series [2] (308.15 K), 160.2 ± 2.5 J/K/mol; in series [2] (313.15 K), 162.1 ± 2.5 J/K/mol. For the same compound, the “molar heat capacity at constant pressure” value in series [2] (318.15 K) was 164.2 ± 2.5 J/K/mol; in series [2] (323.15 K), 166.2 ± 2.6 J/K/mol. Also, the refractive index in series [3] (293.15 K) was 1.4085 ± 0.0008; in series [3] (303.15 K), 1.4017 ± 0.0007; in series [3] (313.15 K), 1.3959 ± 0.0007.
In the case of `C[S+](C)[O-]` [dimethyl sulfoxide], the values for the mass density in series [1] (293.15 K), in series [1] (303.15 K) and in series [1] (313.15 K) were 1100.42 ± 0.23 kg/m3, 1090.41 ± 0.22 kg/m3 and 1080.26 ± 0.21 kg/m3, respectively. Further, the viscosity is on record as 2.213 ± 0.033 mPa·s in series [1] (293.15 K), 1.812 ± 0.027 mPa·s in series [1] (303.15 K) and 1.513 ± 0.023 mPa·s in series [1] (313.15 K). The “molar heat capacity at constant pressure” value in series [2] (288.15 K) came to 149.9 ± 2.3 J/K/mol; in series [2] (293.15 K) it was 150.4 ± 2.3 J/K/mol; in series [2] (298.15 K) it was 151.5 ± 2.3 J/K/mol; in series [2] (303.15 K), 152.2 ± 2.4 J/K/mol; in series [2] (308.15 K) it was 152.9 ± 2.4 J/K/mol; in series [2] (313.15 K), 153.7 ± 2.4 J/K/mol. Also, the results for the “molar heat capacity at constant pressure” value in series [2] (318.15 K) and in series [2] (323.15 K) were 154.7 ± 2.4 J/K/mol and 155.6 ± 2.4 J/K/mol, respectively. Besides, the figures for the refractive index in series [3] (293.15 K), in series [3] (303.15 K) and in series [3] (313.15 K) were 1.4815 ± 0.0007, 1.475 ± 0.0007 and 1.4706 ± 0.0006, respectively.
Turning to `C1CCOCC1` [tetrahydropyran], the mass density in series [1] (293.15 K) worked out at 883.79 ± 0.62 kg/m3; in series [1] (303.15 K), 873.95 ± 0.64 kg/m3; in series [1] (313.15 K), 863.62 ± 0.66 kg/m3. Further, the viscosity came out at 0.875 ± 0.014 mPa·s in series [1] (293.15 K), 0.752 ± 0.012 mPa·s in series [1] (303.15 K) and 0.658 ± 0.011 mPa·s in series [1] (313.15 K). Also, the “molar heat capacity at constant pressure” value in series [2] (288.15 K) is given as 143.4 ± 2.2 J/K/mol; in series [2] (293.15 K), 145.2 ± 2.3 J/K/mol; in series [2] (298.15 K), 147.8 ± 2.3 J/K/mol; in series [2] (303.15 K), 150.2 ± 2.3 J/K/mol; in series [2] (308.15 K) it was 152.6 ± 2.4 J/K/mol; in series [2] (313.15 K), 156 ± 2.4 J/K/mol. Moreover, the figures for the “molar heat capacity at constant pressure” value in series [2] (318.15 K) and in series [2] (323.15 K) were 157.6 ± 2.4 J/K/mol and 159.9 ± 2.5 J/K/mol, respectively. The refractive index in series [3] (293.15 K) was determined as 1.4235 ± 0.0008; in series [3] (303.15 K) it was 1.4171 ± 0.0007; in series [3] (313.15 K), 1.4119 ± 0.0007.
